# Reference: PubChem BioAssay AID330 (DTP/NCI, 2004)
# Values joined by “and” are separate entries in the source; they are usually repeats but may differ in a detail not shown here. Equal entries are not always repeated. Inconclusive results and toxic doses are left out.
# Tested on: P388 leukemia ip, CD2F1 mice, survival T/C
# Assay: NCI In Vivo Anticancer Drug Screen. Data for tumor model P388 Leukemia (intraperitoneal) in CD2F1 (CDF1) mice
# Conditions: endpoint: median survival time, higher = longer survival
# Summary of the method: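 Mice carrying the transplanted tumor received test compound or vehicle. Survival was recorded in each group, and the value is the treated-group measurement divided by that of the vehicle-treated control group.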
# [1] = dose: 50.0 mg/kg/injection, schedule: Q01DX009 (ip), vehicle: Klucel (hydroxypropylcellulose) (HPC)
# [2] = dose: 100.0 mg/kg/injection, schedule: Q01DX009 (ip), vehicle: Klucel (hydroxypropylcellulose) (HPC)
# [3] = dose: 100.0 mg/kg/injection, schedule: Q04DX003 (ip), vehicle: Klucel (hydroxypropylcellulose) (HPC)
# [4] = dose: 200.0 mg/kg/injection, schedule: Q04DX003 (ip), vehicle: Klucel (hydroxypropylcellulose) (HPC)
# [5] = dose: 50.0 mg/kg/injection, schedule: Q01DX005 (ip), vehicle: saline with Tween-80
# [6] = dose: 100.0 mg/kg/injection, schedule: Q01DX005 (ip), vehicle: saline with Tween-80
# [7] = dose: 12.5 mg/kg/injection, schedule: Q01DX009 (ip), vehicle: saline
# [8] = dose: 25.0 mg/kg/injection, schedule: Q01DX009 (ip), vehicle: saline
# [9] = dose: 50.0 mg/kg/injection, schedule: Q01DX009 (ip), vehicle: saline
# [10] = dose: 100.0 mg/kg/injection, schedule: Q01DX009 (ip), vehicle: saline with Tween-80
# [11] = dose: 100.0 mg/kg/injection, schedule: Q01DX009 (ip), vehicle: saline
# [12] = dose: 200.0 mg/kg/injection, schedule: Q01DX009 (ip), vehicle: saline
# [13] = dose: 50.0 mg/kg/injection, schedule: Q01DX005 (ip), vehicle: saline
# [14] = dose: 100.0 mg/kg/injection, schedule: Q01DX005 (ip), vehicle: saline
structure (smiles),measurement,setting,value
CC1COC2(CCC(=CBr)CC2)O1 (stereo unspecified),T/C,"dose: 100.0 mg/kg/injection, schedule: Q01DX001 (ip), vehicle: Klucel (hydroxypropylcellulose) (HPC)",96 % of control
same,T/C,"dose: 200.0 mg/kg/injection, schedule: Q01DX001 (ip), vehicle: Klucel (hydroxypropylcellulose) (HPC)",107 % of control
same,T/C,"dose: 400.0 mg/kg/injection, schedule: Q01DX001 (ip), vehicle: Klucel (hydroxypropylcellulose) (HPC)",100 % of control
CC(=O)NC1CC(=O)N(c2ccc(Cl)cc2)C1=O (stereo unspecified),T/C,[1],96 % of control
same,T/C,[2],96 % of control
same,T/C,[3],102 % of control
same,T/C,[4],101 % of control
N#CC(C(=O)C(=O)Nc1cccc(C(F)(F)F)c1)c1ccccc1 (stereo unspecified),T/C,[5],93 % of control
same,T/C,[6],100 % of control
CC1(C)N=C(N)N=C(N)N1c1ccc(OCCNS(=O)(=O)c2cccc(S(=O)(=O)F)c2)c(Cl)c1,T/C,[7],152 % of control
same,T/C,[8],157 % of control
same,T/C,[9],168 % of control
same,T/C,[10],154 % of control
COc1ccc(O)c2c1C(=O)C=CC2=O,T/C,"dose: 0.4 mg/kg/injection, schedule: Q01DX001 (ip), vehicle: saline with Tween-80",104 % of control
same,T/C,"dose: 0.8 mg/kg/injection, schedule: Q01DX001 (ip), vehicle: saline with Tween-80",96 % of control
same,T/C,"dose: 1.56 mg/kg/injection, schedule: Q01DX001 (ip), vehicle: saline with Tween-80",105 % of control
same,T/C,"dose: 3.13 mg/kg/injection, schedule: Q01DX001 (ip), vehicle: saline with Tween-80",102 % of control
O=C(CC[N+](=O)[O-])OCC1OC(O)C(OC(=O)CC[N+](=O)[O-])C(O)C1O (stereo unspecified),T/C,"dose: 12.5 mg/kg/injection, schedule: Q01DX005 (ip), vehicle: distilled water + Tween-80",100 % of control
same,T/C,"dose: 18.75 mg/kg/injection, schedule: Q01DX001 (ip), vehicle: saline + alcohol",100 % of control
same,T/C,"dose: 25.0 mg/kg/injection, schedule: Q01DX005 (ip), vehicle: distilled water + Tween-80",97 % of control
same,T/C,"dose: 37.5 mg/kg/injection, schedule: Q01DX001 (ip), vehicle: saline + alcohol",101 % of control
same,T/C,"dose: 50.0 mg/kg/injection, schedule: Q01DX005 (ip), vehicle: distilled water + Tween-80",100 % of control
same,T/C,"dose: 75.0 mg/kg/injection, schedule: Q01DX001 (ip), vehicle: saline + alcohol",109 % of control
same,T/C,"dose: 100.0 mg/kg/injection, schedule: Q01DX005 (ip), vehicle: distilled water + Tween-80",98 % of control
same,T/C,"dose: 200.0 mg/kg/injection, schedule: Q01DX005 (ip), vehicle: distilled water + Tween-80",100 % of control
C=C1C=CC1=O,T/C,"dose: 0.63 mg/kg/injection, schedule: Q01DX009 (ip), vehicle: olive oil, sesame oil, peanut oil",100 % of control
same,T/C,"dose: 1.25 mg/kg/injection, schedule: Q01DX009 (ip), vehicle: olive oil, sesame oil, peanut oil",100 % of control and 91 % of control
same,T/C,"dose: 2.5 mg/kg/injection, schedule: Q01DX009 (ip), vehicle: olive oil, sesame oil, peanut oil",100 % of control and 93 % of control
same,T/C,"dose: 5.0 mg/kg/injection, schedule: Q01DX009 (ip), vehicle: olive oil, sesame oil, peanut oil",100 % of control and 104 % of control
same,T/C,"dose: 10.0 mg/kg/injection, schedule: Q01DX009 (ip), vehicle: olive oil, sesame oil, peanut oil",99 % of control and 103 % of control
c1ccc2c(-c3cc(-c4cc(-c5cccc6ccccc56)on4)no3)cccc2c1,T/C,"dose: 60.0 mg/kg/injection, schedule: Q01DX005 (ip), vehicle: saline with Tween-80",106 % of control
same,T/C,"dose: 120.0 mg/kg/injection, schedule: Q01DX005 (ip), vehicle: saline with Tween-80",97 % of control
same,T/C,"dose: 240.0 mg/kg/injection, schedule: Q01DX005 (ip), vehicle: saline with Tween-80",100 % of control
CC(O)c1ccc(C(C)O)cc1 (stereo unspecified),T/C,[9],91 % of control
same,T/C,[11],86 % of control
same,T/C,[12],96 % of control
CCOC(=O)NOP(=O)(N1CC1)N1CC1,T/C,"dose: 12.5 mg/kg/injection, schedule: Q01DX001 (ip), vehicle: saline + alcohol",109 % of control and 124 % of control
same,T/C,"dose: 25.0 mg/kg/injection, schedule: Q01DX001 (ip), vehicle: saline + alcohol",111 % of control
same,T/C,"dose: 100.0 mg/kg/injection, schedule: Q01DX001 (ip), vehicle: saline + alcohol",238 % of control
CC1(C)CC23C4COC(=O)C2CCC1C3CC4=O (stereo unspecified),T/C,"dose: 1.5 mg/kg/injection, schedule: Q01DX009 (ip), vehicle: DMSO",94 % of control
same,T/C,"dose: 3.0 mg/kg/injection, schedule: Q01DX009 (ip), vehicle: DMSO",107 % of control and 94 % of control
same,T/C,"dose: 6.0 mg/kg/injection, schedule: Q01DX009 (ip), vehicle: DMSO",104 % of control and 91 % of control
same,T/C,"dose: 12.0 mg/kg/injection, schedule: Q01DX009 (ip), vehicle: DMSO",88 % of control and 95 % of control
same,T/C,"dose: 24.0 mg/kg/injection, schedule: Q01DX009 (ip), vehicle: DMSO",90 % of control
same,T/C,"dose: 48.0 mg/kg/injection, schedule: Q01DX009 (ip), vehicle: DMSO",106 % of control and 91 % of control
O=C([O][Hg][C](F)(F)F)C(F)(F)F,T/C,"dose: 1.56 mg/kg/injection, schedule: Q04DX003 (ip), vehicle: saline",104 % of control
same,T/C,"dose: 3.13 mg/kg/injection, schedule: Q04DX003 (ip), vehicle: saline",101 % of control
O=C(O)C1=Cc2ccccc2OC1,T/C,[3],101 % of control
same,T/C,[4],107 % of control
same,T/C,"dose: 400.0 mg/kg/injection, schedule: Q04DX003 (ip), vehicle: Klucel (hydroxypropylcellulose) (HPC)",105 % of control
ClCCN1c2ccccc2Sc2ccc3ccccc3c21,T/C,[5],89 % of control
same,T/C,[6],93 % of control
CN(C)CCCNC(=O)NCCCCCCNC(=O)NCCCN(C)C,T/C,[5],93 % of control
same,T/C,[6],86 % of control
COc1cc(OC)c(-c2cc(C(=O)O)c3cc4ccccc4cc3n2)c(OC)c1,T/C,[1],89 % of control
same,T/C,[2],99 % of control
same,T/C,"dose: 200.0 mg/kg/injection, schedule: Q01DX009 (ip), vehicle: Klucel (hydroxypropylcellulose) (HPC)",97 % of control
COC(=O)C12CC=CC1C(C)CC2 (stereo unspecified),T/C,"dose: 75.0 mg/kg/injection, schedule: Q04DX002 (ip), vehicle: Klucel (hydroxypropylcellulose) (HPC)",100 % of control
same,T/C,"dose: 150.0 mg/kg/injection, schedule: Q04DX002 (ip), vehicle: Klucel (hydroxypropylcellulose) (HPC)",100 % of control
same,T/C,"dose: 300.0 mg/kg/injection, schedule: Q04DX002 (ip), vehicle: Klucel (hydroxypropylcellulose) (HPC)",100 % of control
CCCCCCNC(C)C,T/C,[13],104 % of control
same,T/C,[14],101 % of control
c1ccc(C23CCCCC2=Nc2ccccc23)cc1 (stereo unspecified),T/C,[13],104 % of control
same,T/C,[14],105 % of control
same,T/C,"dose: 200.0 mg/kg/injection, schedule: Q01DX005 (ip), vehicle: saline",107 % of control
c1ccc(CCc2cccc3ccccc23)nc1,T/C,[5],98 % of control
same,T/C,[6],96 % of control
same,T/C,"dose: 200.0 mg/kg/injection, schedule: Q01DX005 (ip), vehicle: saline with Tween-80",100 % of control
O=[N+]([O-])c1ccc(CSC(=S)Nc2ccc(Cl)c(Cl)c2)cc1,T/C,"dose: 25.0 mg/kg/injection, schedule: Q01DX009 (ip), vehicle: saline with Tween-80",106 % of control
same,T/C,[8],109 % of control
same,T/C,"dose: 50.0 mg/kg/injection, schedule: Q01DX009 (ip), vehicle: saline with Tween-80",114 % of control
same,T/C,[9],107 % of control
same,T/C,"dose: 50.0 mg/kg/injection, schedule: Q01DX009 (ip), vehicle: suspension in saline",103 % of control
same,T/C,[10],115 % of control
same,T/C,[11],109 % of control
same,T/C,"dose: 100.0 mg/kg/injection, schedule: Q01DX009 (ip), vehicle: suspension in saline",113 % of control
same,T/C,"dose: 200.0 mg/kg/injection, schedule: Q01DX009 (ip), vehicle: saline with Tween-80",97 % of control
same,T/C,[12],116 % of control
same,T/C,"dose: 200.0 mg/kg/injection, schedule: Q01DX009 (ip), vehicle: suspension in saline",115 % of control
CN(C)CCC(=O)c1cccc([N+](=O)[O-])c1,T/C,[7],104 % of control
same,T/C,[8],101 % of control
same,T/C,[9],104 % of control and 109 % of control
same,T/C,[11],98 % of control
C=C(Cl)CN(CCCC(=O)O)c1ccccc1,T/C,"dose: 100.0 mg/kg/injection, schedule: Q04DX003 (ip), vehicle: other",100 % of control
same,T/C,"dose: 200.0 mg/kg/injection, schedule: Q04DX003 (ip), vehicle: other",109 % of control
same,T/C,"dose: 400.0 mg/kg/injection, schedule: Q04DX003 (ip), vehicle: other",90 % of control
